Values quoted from earlier work in patent publication EP4512398A1, “FLURALANER FOR USE IN METHODS OF TREATMENT AND PREVENTION OF SEA LICE INFESTATION IN FISH” (Bimeda Animal Health Limited, priority 2023, dated 2025).

System: parasites with resistance to organophosphates, pyrethroids and carbamates
Conditions: bio-assays, background statement; cited from earlier work

## Cc1cc(C2=NOC(c3cc(Cl)cc(Cl)c3)(C(F)(F)F)C2)ccc1C(=O)NCC(=O)NCC(F)(F)F (stereo not shown) [fluralaner, Fluralaner]
  efficacy against parasites with resistance to organophosphates, pyrethroids and carbamates: effective
